Measurements reported in PubChem BioAssay AID1259407 (Chemical Carcinogenesis Research Information System (CCRIS), 2018).
Calls of active or inactive are those of the source. No rule for the calls is given here.

System: CCRIS mutagenicity, Ames/micronucleus/aberration tests
Test: CCRIS mutagenicity studies
[1] = Test System: AMES SALMONELLA TYPHIMURIUM, Strain/Indicator: TA100, Metabolic Activation: RAT, LIVER, S-9, AROCLOR 1254, Method: STANDARD PLATE
[2] = Test System: AMES SALMONELLA TYPHIMURIUM, Strain/Indicator: TA1538, Metabolic Activation: RAT, LIVER, S-9, AROCLOR 1254, Method: STANDARD PLATE
[3] = Test System: AMES SALMONELLA TYPHIMURIUM, Strain/Indicator: TA98, Metabolic Activation: NONE, Method: PREINCUBATION
[4] = Test System: AMES SALMONELLA TYPHIMURIUM, Strain/Indicator: TA100, Metabolic Activation: NONE, Method: PREINCUBATION
[5] = Test System: AMES SALMONELLA TYPHIMURIUM, Strain/Indicator: TA98, Metabolic Activation: NONE, Method: STANDARD PLATE
[6] = Test System: AMES SALMONELLA TYPHIMURIUM, Strain/Indicator: TA100, Metabolic Activation: NONE, Method: STANDARD PLATE

## OCc1c2ccccc2c2ccc3cccc4ccc1c2c43
Test System: AMES SALMONELLA TYPHIMURIUM, Strain/Indicator: TA98, Metabolic Activation: RAT, LIVER, CYTOSOL AND PAPS-GENERATING SYSTEM, Method: PREINCUBATION
  mutagenic call: active; positive
Test System: AMES SALMONELLA TYPHIMURIUM, Strain/Indicator: TA100, Metabolic Activation: RAT, LIVER, CYTOSOL AND PAPS-GENERATING SYSTEM, Method: PREINCUBATION
  mutagenic call: active; positive
[1]
  mutagenic call: active; positive
[2]
  mutagenic call: active; positive
Test System: CHINESE HAMSTER V-79, Strain/Indicator: V-79 (HGPRT)/6-THIOGUANINE, Metabolic Activation: NONE
  mutagenic call: active; positive
Test System: CHINESE HAMSTER V-79, Strain/Indicator: V-79 (NA/K-ATPASE)/OUABAIN, Metabolic Activation: NONE
  mutagenic call: active; positive
Test System: CHINESE HAMSTER V-79, Strain/Indicator: V-79/OUABAIN, Metabolic Activation: HAMSTER, EMBRYO, CELL-MEDIATED, Method: STANDARD PLATE
  mutagenic call: active; positive

## CCC[CH2][Sn]([Cl])([Cl])[Cl]
Test System: AMES SALMONELLA TYPHIMURIUM, Strain/Indicator: TA98, Metabolic Activation: NONE, Method: SUSPENSION/PLATE
  mutagenic call: inactive; negative
Test System: AMES SALMONELLA TYPHIMURIUM, Strain/Indicator: TA100, Metabolic Activation: NONE, Method: SUSPENSION/PLATE
  mutagenic call: inactive; negative

## CN(C)c1ccc(N)cc1
End Point: IN VITRO CHROMOSOMAL ABERRATIONS, Test System: CHINESE HAMSTER LUNG CELLS (CHL), Metabolic Activation: NONE
  mutagenic call: active; positive (structural changes)
End Point: IN VITRO CHROMOSOMAL ABERRATIONS, Test System: CHINESE HAMSTER LUNG CELLS (CHL), Metabolic Activation: RAT, LIVER, S-9, KC-400
  mutagenic call: inactive; negative; authors describe results at highest dose as equivocal
End Point: IN VITRO CHROMOSOMAL ABERRATIONS, Test System: CHINESE HAMSTER OVARY CELLS (CHO), Metabolic Activation: NONE
  mutagenic call: inactive; positive at highest dose; authors describe overall results as negative
End Point: IN VITRO CHROMOSOMAL ABERRATIONS, Test System: CHINESE HAMSTER OVARY CELLS (CHO), Metabolic Activation: RAT, LIVER, S-9, AROCLOR 1254
  mutagenic call: inactive; negative
Test System: AMES SALMONELLA TYPHIMURIUM, Strain/Indicator: TA98, Metabolic Activation: HAMSTER, LIVER, S-9, AROCLOR 1254 (30%), Method: PREINCUBATION
  mutagenic call: active; positive
[3]
  mutagenic call: inactive; negative
Test System: AMES SALMONELLA TYPHIMURIUM, Strain/Indicator: TA98, Metabolic Activation: RAT, LIVER, S-9, AROCLOR 1254 (30%), Method: PREINCUBATION
  mutagenic call: active; positive
Test System: AMES SALMONELLA TYPHIMURIUM, Strain/Indicator: TA100, Metabolic Activation: HAMSTER, LIVER, S-9, AROCLOR 1254 (30%), Method: PREINCUBATION
  mutagenic call: inactive; negative
[4]
  mutagenic call: inactive; negative
Test System: AMES SALMONELLA TYPHIMURIUM, Strain/Indicator: TA100, Metabolic Activation: RAT, LIVER, S-9, AROCLOR 1254 (30%), Method: PREINCUBATION
  mutagenic call: inactive; negative
Test System: Ames Salmonella typhimurium, Strain/Indicator: TA102, Metabolic Activation: None, Method: Preincubation
  mutagenic call: inactive; negative
Test System: Ames Salmonella typhimurium, Strain/Indicator: TA102, Metabolic Activation: Rat, Liver, S9, Aroclor 1254, Method: Preincubation
  mutagenic call: active; positive
Test System: Ames Salmonella typhimurium, Strain/Indicator: TA104, Metabolic Activation: None, Method: Preincubation
  mutagenic call: inactive; negative
Test System: Ames Salmonella typhimurium, Strain/Indicator: TA104, Metabolic Activation: Rat, Liver, S9, Aroclor 1254, Method: Preincubation
  mutagenic call: active; positive

## C/C=C\c1cc(OC)c(OC)cc1OC
Test System: AMES SALMONELLA TYPHIMURIUM, Strain/Indicator: TA97, Metabolic Activation: NONE, Method: STANDARD PLATE
  mutagenic call: inactive; negative
Test System: AMES SALMONELLA TYPHIMURIUM, Strain/Indicator: TA97, Metabolic Activation: RAT, LIVER, S-9, AROCLOR 1254, Method: STANDARD PLATE
  mutagenic call: inactive; negative
[5]
  mutagenic call: inactive; negative
Test System: AMES SALMONELLA TYPHIMURIUM, Strain/Indicator: TA98, Metabolic Activation: RAT, LIVER, S-9, AROCLOR 1254, Method: STANDARD PLATE
  mutagenic call: inactive; negative
[6]
  mutagenic call: inactive; negative
[1]
  mutagenic call: inactive; negative
Test System: AMES SALMONELLA TYPHIMURIUM, Strain/Indicator: TA1535, Metabolic Activation: NONE, Method: STANDARD PLATE
  mutagenic call: active; positive
Test System: AMES SALMONELLA TYPHIMURIUM, Strain/Indicator: TA1535, Metabolic Activation: RAT, LIVER, S-9, AROCLOR 1254, Method: STANDARD PLATE
  mutagenic call: inactive; negative
Test System: AMES SALMONELLA TYPHIMURIUM, Strain/Indicator: TA1537, Metabolic Activation: NONE, Method: STANDARD PLATE
  mutagenic call: inactive; negative
Test System: AMES SALMONELLA TYPHIMURIUM, Strain/Indicator: TA1537, Metabolic Activation: RAT, LIVER, S-9, AROCLOR 1254, Method: STANDARD PLATE
  mutagenic call: inactive; negative
Test System: AMES SALMONELLA TYPHIMURIUM, Strain/Indicator: TA1538, Metabolic Activation: NONE, Method: STANDARD PLATE
  mutagenic call: inactive; negative
[2]
  mutagenic call: inactive; negative
Test System: UDS RAT HEPATOCYTES, Strain/Indicator: THY INCORP, Metabolic Activation: NONE, Method: LIQUID SCINTILLATION COUNTING
  mutagenic call: active; positive

## O=[N+]([O-])c1cccc(CO)c1
[3]
  mutagenic call: inactive; negative
[4]
  mutagenic call: inactive; negative
Test System: AMES SALMONELLA TYPHIMURIUM, Strain/Indicator: TA100, Metabolic Activation: RAT, LIVER, S-9, AROCLOR 1254, Method: PREINCUBATION
  mutagenic call: inactive; negative

## Nc1cccc2c1-c1ccccc1C2
Test System: AMES SALMONELLA TYPHIMURIUM, Strain/Indicator: TA98, Metabolic Activation: RAT, LIVER, S-9, AROCLOR 1254 (2 OR 4%), Method: STANDARD PLATE
  mutagenic call: active; positive
Test System: AMES SALMONELLA TYPHIMURIUM, Strain/Indicator: TA100, Metabolic Activation: RAT, LIVER, S-9, AROCLOR 1254 (2%), Method: STANDARD PLATE
  mutagenic call: active; positive
Test System: AMES SALMONELLA TYPHIMURIUM, Strain/Indicator: TA1535, Metabolic Activation: RAT, LIVER, S-9, AROCLOR 1254 (2%), Method: STANDARD PLATE
  mutagenic call: inactive; negative
Test System: AMES SALMONELLA TYPHIMURIUM, Strain/Indicator: TA1537, Metabolic Activation: RAT, LIVER, S-9, AROCLOR 1254 (2%), Method: STANDARD PLATE
  mutagenic call: inactive; negative

## Nc1ncc2[nH]cnc2n1
[5]
  mutagenic call: inactive; negative
[6]
  mutagenic call: inactive; negative
Test System: CHINESE HAMSTER V-79, Strain/Indicator: V-79 (HGPRT)/6-THIOGUANINE, Metabolic Activation: NONE, Method: STANDARD PLATE
  mutagenic call: active; positive
Test System: E. COLI, Strain/Indicator: WP2, Metabolic Activation: NONE, Method: STANDARD PLATE
  mutagenic call: active; positive
Test System: E. COLI, Strain/Indicator: WP2 UVRA, Metabolic Activation: NONE, Method: STANDARD PLATE
  mutagenic call: active; positive
Test System: MOUSE LYMPHOMA, Strain/Indicator: L5178Y (TK+/TK-), Metabolic Activation: NONE, Method: SUSPENSION/PLATE
  mutagenic call: active; positive

## CC(=O)c1ccc(N)cc1
Test System: E. COLI, Strain/Indicator: WP2 UVRA, Metabolic Activation: NONE, Method: FLUCTUATION TEST
  mutagenic call: inactive; negative
